The subject of one assay is mice. Put plainly: Brief-access (30 min) two-bottle tests, immediate attraction. Format: in vivo. The settings on record: 30 min two-bottle test, 3 mM AceK or 1.5% Intralipid, n=9 mice. How it is done: Two-bottle preference assays. No behavioral experiments, including the short-term assays for taste responses, or the 48 h tests examining the development of sugar or fat preference used water-restricted or food-deprived mice. Mice were given ad libitum access to food and water for several days prior to the behavioral tests; any food or water restriction would severely affect the mice's behavior in preference or taste responses. Development of fat preference: mice were first tested for their initial preference between 1.5% Intralipid and 3 mM AceK (pre testing) by completing 100 drinking trials. Each trial was initiated by the first lick and lasted for 5 s; the drinking ports then re-opened after 30 s of inter-trial interval. Next, mice were exposed to 500 licks to both 1.5% Intralipid and 3 mM AceK; this was repeated twice. […] The pre and post-preference indexes were calculated by dividing the number of licks to fat by the total lick count during the first 2-4 h (100 trials) of baseline measurements (pre) and during the last 2-4 h (100 trials) of the behavioural session (post), respectively. […] The ‘pre’ preference index was calculated as the number of licks to fat divided by the total lick count during the first 4 h; the “post” preference index was calculated as the number of licks to fat divided by the total lick count during the last 4 h of the session. […]

Another assay concerns vagal sensory neurons. The experiment in a line: Vagal calcium imaging (nodose ganglion, GCaMP6s) with intestinal delivery of stimuli. In kind it is in vivo, mice. Conditions: for responding vagal neurons of imaged neurons: intestinal delivery, 10% fatty acid or pre-digested Intralipid, FIG. 10E-10I stimuli interleaved with 10% LA (10 s). How it is done: To directly examine and monitor the fat responses of vagal sensory neurons, functional imaging of the nodose ganglion (which contains the cell bodies of vagal neurons) was performed. The genetically encoded activity sensor GCaMP6s was targeted to vagal sensory neurons using Vglut2-Cre animals, and a one-photon calcium imaging set-up was used coupled to synchronous intestinal delivery of fat, sugar and other stimuli to record neuronal responses in vivo, with real time kinetics (FIG. 2E, FIG. 10A, FIG. 10B, FIG. 10C). To administer the stimuli, a catheter was placed into the duodenal bulb, and an exit port was created by transecting the intestine 10 cm distally. During each imaging session, the intestine was exposed to a pre-stimulus application of PBS, a 10 s or 60 s exposure to the test stimulus, and a 200 s post-stimulus wash; this regime was repeated at least 3 times for each stimulus.
Fat, sugar and amino acid intestinal stimulation. Stimuli for nodose imaging experiments were as follows. Sugar: 500 mM glucose. Amino acids: a mix consisting of 50 mM methionine, 50 mM serine, 50 mM alanine, 50 mM glutamine and 50 mM cysteine dissolved in PBS. Fat: 10% linoleic acid, 10% linolenic acid, 10% hexanoic acid, 10% DHA, 10% oleic acid, diluted in PBS containing 0.1% xanthan gum and 0.05% Tween 80, and vortexed for a minimum of 10 min. Vehicle control: 0.1% xanthan gum and 0.05% Tween 80. For sugar and fat intestinal stimulation in imaging experiments, a 10 s window of stimulation was used; for amino acids, a 60 s stimulus was used, as lower concentrations of each in the mix of several amino acids was used (see above). Note that if using Intralipid mix (a 20% soy bean oil emulsion, Santa Cruz) for nodose imaging experiments (rather than consumption where it would be naturally digested and broken down into short, medium and long chain fatty acids), the material was pre-digested with lipases (mimicking its natural course of action upon ingestion). […] Intralipid was incubated with 4 mg/ml lipase (sigma) in PBS plus 10 mM CaCl2 for a minimum of 5 h at 37° C.
Vagal calcium imaging. Each mouse was anaesthetized with ketamine (100 mg/kg) and xylazine (10 mg/kg). […] For glutamate receptor blocker experiments, a mixture of metabotropic glutamate receptor antagonist AP3 (2 mg/kg) and ionotropic glutamate receptor antagonist kynurenic acid (300 μg/kg) was used. CCKAR and glutamate receptor blockers were delivered both into the intestines and abdominal cavity; after a 5 min incubation period, the imaging session was started.
Calcium imaging data collection and analysis. […] Data was acquired at 5 Hz. A single field of view was chosen for recording and analysis from each ganglion. Calcium imaging data collected at 5 Hz was down-sampled by a factor of 2, and the images were stabilized using the NORMCorre algorithm. Motion-corrected movies were then manually segmented in ImageJ using the Cell Magic Wand plugin. Neuropil fluorescence was subtracted from each region of interest with the FISSA toolbox, and neural activity was denoised using the OASIS deconvolution algorithm. […] For experiments using blockers, two repeat trials per stimuli were used to accommodate the expanded time scale of the session (that is, before and after), and a neuron was considered a responder if it responded in both trials. The two-trial average area under curve for each stimulus was used to quantify the before and after responses (FIG. 12D, FIG. 12E). Imaging data is presented as heat maps of z-score-normalized responses.

The subject of a further assay is cNST. Put plainly: Fos stimulation and histology, cNST. Format: in vivo, mice. Conditions: 90 min exposure; 20% Intralipid, 10% linoleic acid or 10% oleic acid vs xanthan gum / mineral oil controls. The text has this: Separate cohorts of animals were exposed to 3 different lipid stimuli (Intralipid, linoleic acid, or oleic acid) and to fat-free textural controls (xanthan gum or mineral oil). […] The cNST is a nexus of interoceptive signals conveying information from the body to the brain via the gut-brain axis. If the fat-activated brain cNST neurons are receiving signals originating in the gut, then direct delivery of fat stimuli into the gut should also induce activation of the cNST. An intragastric catheter was implanted in the stomach and infused either a fat solution or a vehicle control. Intragastric infusion of fat, but not of a vehicle, is sufficient to activate the cNST as robustly as oral ingestion (FIG. 1E, FIG. 1F, FIG. 8J, FIG. 8K, FIG. 8L).
Fos stimulation and histology. Stimuli consisted of 20% Intralipid (sc215182, Santa Cruz Biotechnology), 10% linoleic acid, 10% oleic acid, 0.3% xanthan gum or 10% mineral oil. Stimuli were emulsified by dilution into milliQ water containing 0.1% xanthan gum and 0.05% Tween 80, and vortexed for a minimum of 10 min. […] Quantification of Fos labelling was carried out by recording the number of positive neurons in an equivalent 200×200 um area of the cNST (bregma—7.5 mm) and area postrema. […]

In a further assay the test system is vagal neurons. Put plainly: CCK application in vagal calcium imaging. Format: in vivo, mice. Conditions: 1 μg/ml CCK, 60 s. The text has this: Calcium imaging data collection and analysis. […] Data was acquired at 5 Hz.
A further assay has as its system cNST neurons. The experiment in a line: Fibre photometry of cNST activity in response to intestinal delivery of stimuli. Format: in vivo, mice. The settings on record: Penk-Cre animals.

Entries after “also recorded” stand apart in the source; their conditions may differ.

Experimental for cNST neurons: Fibre photometry. Vglut2-cre; Ai96 mice were placed in a stereotaxic frame and implanted with a 400 μm core, 0.48 NA optical fibre (Doric Lenses) 50-100 μm over the left cNST. […] To quantify the effects of vagotomy, the ratio of stimulus-related peak amplitude of the normalized trace was calculated (within 120 s of stimulus onset) prior vagotomy versus after vagotomy. […] Stimulus delivery was performed via a series of peristaltic pumps (BioChem Fluidics) operated via custom Matlab software and Arduino microcontroller. Stimuli and washes were delivered through separate lines that converged on a common perfusion manifold (Warner Instruments) connected to the duodenal catheter. Trials consisted of a 60-s baseline (PBS 200 μl/min), a 30 s stimulus (200 μl/min), and a 3-min washout period (150 s at 600 μl/min, and 30 s at 150 μl/min). Stimuli were each presented three times in an interleaved fashion.

As for `CC1=CC(=O)[N-]S(=O)(=O)O1.[K+]` [AceK, acesulfame K], the “immediate attraction versus water” value with mice is “strong innate attraction”.

Take `CC/C=C\C/C=C\C/C=C\CCCCCCCC(=O)O` [alpha-linolenic acid]: the “responding vagal neurons of imaged neurons” value with vagal sensory neurons was 49/322.

For `CCCCCCCC/C=C\CCCCCCCC(=O)O` [oleic acid], the “Fos labelling in cNST upon ingestion” value in the assay on cNST is reported as “strong Fos labelling; also recorded: strong bilateral activation”. Besides, in the assay on vagal sensory neurons, the “responding vagal neurons of imaged neurons” value is on record as 39/418.

For the molecule `CC/C=C\C/C=C\C/C=C\C/C=C\C/C=C\C/C=C\CCC(=O)O` [docosahexaenoic acid], the “responding vagal neurons of imaged neurons” value in the assay on vagal sensory neurons is reported as 51/348.

Regarding `CCCCCC(=O)O` [hexanoic acid], the “responding vagal neurons of imaged neurons” value in the assay with vagal sensory neurons is listed as 52/495.

Take Cholecystokinin [CCK]: the “activation of fat-only vagal neurons” value in the assay on vagal neurons is on record as “not the fat-only vagal neurons”. Further, the “activation of sugar/nutrient responding vagal neurons” value in the assay with vagal neurons is “all sugar/nutrient responders were activated; also recorded: also responded to CCK”; with vagal neurons (listed as CCK peptide), “strongly activated”.

For the molecule `CCCCC/C=C\C/C=C\CCCCCCCC(=O)O` [linoleic acid], the “cNST neural responses to intestinal delivery” value in the assay on cNST neurons (10% linoleic acid or 500 mM glucose, n=4 mice) is “robust, time-locked responses”. Also, in the assay on cNST, the “Fos labelling in cNST upon ingestion” value is listed as “strong Fos labelling; also recorded: strong bilateral activation”. Besides, in the assay with vagal sensory neurons (10% linoleic acid and 500 mM glucose, 10 s, 1813 neurons imaged, 22 vagal ganglia), the “neurons that responded only to fat (fat-only responders)” value is listed as 153. Moreover, in the assay on vagal sensory neurons (Trpa1-Cre, Ai162, 163 imaged neurons from 5 ganglia, 10% linoleic acid), the “TRPA1-expressing vagal neurons responding to fat” value is roughly 24%. In addition, the “subset of vagal neurons with evoked responses, % of GCaMP-expressing Vglut2 neurons” value with vagal sensory neurons (intestinal infusion, Vglut2-Cre animals) is listed as 17%. The “vagal neuron responses to intestinal delivery” value in the assay with vagal sensory neurons (vs vehicle control (0.1% xanthan gum plus 0.05% Tween 80)) was “strong responses; also recorded: robust responses”.

Consider `CN1C(=O)[C@@H](NC(=O)c2cc3ccccc3[nH]2)N=C(c2ccccc2)c2ccccc21` [devazepide, Devazepide], for which, in the assay on cNST neurons (photometric recordings, n=5), the “cNST responses to intestinal fat stimulation after removing CCK-dependent signaling” value is listed as roughly 50% and the “cNST sugar-evoked responses after inhibiting signaling via the CCK dependent pathway” value was “completely abolished”.

Values taken from patent US20250082649A1, “ALTERATION OF NUTRIENT PREFERENCES VIA MODULATION OF NUTRIENT RECEPTORS IN THE GUT” (The Trustees of Columbia University in the City of New York, priority 2022, published 2025).
